Measured values as given in ChEMBL document CHEMBL3580565, “Synthesis and Biological Evaluation of Cyclopentaquinoline Derivatives as Nonsteroidal Glucocorticoid Receptor Antagonists” (J Med Chem, 2015).

Tests used:
[1] = molecular target: T1, Glucocorticoid receptor (Homo sapiens, UniProt P04150); experiment: Antagonist activity at human glucocorticoid receptor transfected in CHOK1 cells assessed as inhibition of dexamethasone-induced receptor transcriptional activity after 6 hrs by luciferase reporter gene assay; type: cell-based, CHO-K1
T1 sequence (P04150 whole entry): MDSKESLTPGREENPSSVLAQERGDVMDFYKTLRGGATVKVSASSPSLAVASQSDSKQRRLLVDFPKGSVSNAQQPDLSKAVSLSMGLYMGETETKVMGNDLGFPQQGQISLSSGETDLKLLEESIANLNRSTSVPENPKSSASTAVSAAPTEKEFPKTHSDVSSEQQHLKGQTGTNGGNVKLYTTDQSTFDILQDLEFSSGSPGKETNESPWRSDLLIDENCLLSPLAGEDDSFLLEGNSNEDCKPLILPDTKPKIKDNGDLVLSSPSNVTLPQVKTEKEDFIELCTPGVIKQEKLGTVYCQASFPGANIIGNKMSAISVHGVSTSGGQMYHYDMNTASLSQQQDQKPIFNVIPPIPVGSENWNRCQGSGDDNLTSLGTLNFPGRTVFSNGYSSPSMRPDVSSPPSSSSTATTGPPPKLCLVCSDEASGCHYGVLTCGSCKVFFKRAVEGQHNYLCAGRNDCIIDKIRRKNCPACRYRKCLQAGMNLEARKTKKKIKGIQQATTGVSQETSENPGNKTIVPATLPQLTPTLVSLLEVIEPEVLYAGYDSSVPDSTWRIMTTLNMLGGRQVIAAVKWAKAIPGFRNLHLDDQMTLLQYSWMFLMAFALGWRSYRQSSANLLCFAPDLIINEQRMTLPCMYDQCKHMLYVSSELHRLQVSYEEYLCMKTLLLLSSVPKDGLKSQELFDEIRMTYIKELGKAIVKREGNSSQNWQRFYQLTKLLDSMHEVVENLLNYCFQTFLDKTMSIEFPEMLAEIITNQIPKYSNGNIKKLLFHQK

[2] = molecular target: T1, Glucocorticoid receptor; experiment: Displacement of [3H]-dexamethasone from cytosolic fraction of human recombinant glucocorticoid receptor by scintillation counting analysis
[3] = molecular target: T2, Progesterone receptor (Homo sapiens, UniProt P06401); experiment: Displacement of [3H]-progesterone from cytosolic fraction of human recombinant progesterone-B receptor by scintillation counting analysis
T2 sequence (P06401 whole entry): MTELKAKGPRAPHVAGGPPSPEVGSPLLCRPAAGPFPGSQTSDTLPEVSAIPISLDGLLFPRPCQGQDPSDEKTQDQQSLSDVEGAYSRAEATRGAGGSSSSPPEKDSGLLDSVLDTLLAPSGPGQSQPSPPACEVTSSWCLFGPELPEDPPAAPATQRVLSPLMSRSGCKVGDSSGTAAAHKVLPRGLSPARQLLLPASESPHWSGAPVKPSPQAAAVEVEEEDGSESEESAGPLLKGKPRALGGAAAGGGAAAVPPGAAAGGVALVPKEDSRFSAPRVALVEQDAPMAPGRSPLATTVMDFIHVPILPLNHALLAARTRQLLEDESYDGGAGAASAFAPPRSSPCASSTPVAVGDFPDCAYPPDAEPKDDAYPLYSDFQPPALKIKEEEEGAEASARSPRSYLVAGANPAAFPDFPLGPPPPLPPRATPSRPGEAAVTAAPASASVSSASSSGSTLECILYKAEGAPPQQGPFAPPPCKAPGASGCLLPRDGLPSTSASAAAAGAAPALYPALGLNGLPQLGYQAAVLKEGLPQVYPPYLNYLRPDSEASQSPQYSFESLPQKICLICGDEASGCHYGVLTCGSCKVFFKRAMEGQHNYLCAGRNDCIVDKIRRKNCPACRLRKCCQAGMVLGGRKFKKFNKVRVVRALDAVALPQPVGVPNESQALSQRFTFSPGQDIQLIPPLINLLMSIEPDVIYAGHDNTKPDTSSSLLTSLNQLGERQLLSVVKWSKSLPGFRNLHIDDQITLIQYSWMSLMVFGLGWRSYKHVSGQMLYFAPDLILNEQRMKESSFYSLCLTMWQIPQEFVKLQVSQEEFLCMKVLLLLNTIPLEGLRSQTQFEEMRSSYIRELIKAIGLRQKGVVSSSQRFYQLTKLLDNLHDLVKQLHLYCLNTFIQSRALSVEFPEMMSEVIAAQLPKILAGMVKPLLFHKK

[4] = molecular target: T3, Mineralocorticoid receptor (Homo sapiens, UniProt P08235); experiment: Displacement of [3H]-aldosterone from cytosolic fraction of human recombinant mineralocorticoid receptor by scintillation counting analysis
T3 sequence (P08235 whole entry): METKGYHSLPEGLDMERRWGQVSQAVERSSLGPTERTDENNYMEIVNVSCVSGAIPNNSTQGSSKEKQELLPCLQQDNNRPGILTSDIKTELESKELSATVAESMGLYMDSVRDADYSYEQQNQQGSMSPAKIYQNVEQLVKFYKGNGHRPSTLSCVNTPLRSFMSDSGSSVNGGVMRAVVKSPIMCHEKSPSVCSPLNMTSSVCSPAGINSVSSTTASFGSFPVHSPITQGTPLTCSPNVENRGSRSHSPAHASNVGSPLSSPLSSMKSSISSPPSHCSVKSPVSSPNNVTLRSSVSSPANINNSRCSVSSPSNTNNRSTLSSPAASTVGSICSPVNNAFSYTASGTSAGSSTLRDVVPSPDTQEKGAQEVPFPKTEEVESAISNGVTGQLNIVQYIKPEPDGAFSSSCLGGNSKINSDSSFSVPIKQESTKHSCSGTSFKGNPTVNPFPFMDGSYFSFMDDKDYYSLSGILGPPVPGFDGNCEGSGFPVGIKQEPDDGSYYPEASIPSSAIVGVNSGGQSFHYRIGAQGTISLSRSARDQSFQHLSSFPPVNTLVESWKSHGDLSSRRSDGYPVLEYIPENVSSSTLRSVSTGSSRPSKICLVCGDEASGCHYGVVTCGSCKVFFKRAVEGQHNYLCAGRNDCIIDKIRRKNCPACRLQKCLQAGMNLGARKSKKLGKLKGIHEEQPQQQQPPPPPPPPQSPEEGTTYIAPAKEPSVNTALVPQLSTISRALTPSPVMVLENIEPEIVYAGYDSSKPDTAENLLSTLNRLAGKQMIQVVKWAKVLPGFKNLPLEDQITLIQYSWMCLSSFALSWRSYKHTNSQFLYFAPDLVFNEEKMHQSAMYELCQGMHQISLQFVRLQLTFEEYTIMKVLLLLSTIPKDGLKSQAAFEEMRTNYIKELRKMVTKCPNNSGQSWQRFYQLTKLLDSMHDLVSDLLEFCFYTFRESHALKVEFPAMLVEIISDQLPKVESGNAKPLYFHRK

[5] = system: Rattus norvegicus; experiment: Antidepressant-like activity in Wistar rat assessed as immobility time at 10 mg/kg, po administered at 1, 5, 23.5 hrs prior to testing measured for 5 mins by forced swimming test (reference value: 211.3 to 232.2 secs); type: functional
[6] = system: Rattus norvegicus; experiment: Antidepressant-like activity in Wistar rat assessed as immobility time at 30 mg/kg, po administered at 1, 5, 23.5 hrs prior to testing measured for 5 mins by forced swimming test (reference value: 211.3 to 232.2 secs); type: functional
[7] = system: Rattus norvegicus; experiment: Antidepressant-like activity in Wistar rat assessed as decrease in immobility time at 10 mg/kg, po administered at 1, 5, 23.5 hrs prior to testing measured for 5 mins by forced swimming test relative to vehicle-treated control; type: functional; set-up: scale not given: the % may be the effect or the level left
[8] = system: Rattus norvegicus; experiment: Antidepressant-like activity in Wistar rat assessed as decrease in immobility time at 30 mg/kg, po administered at 1, 5, 23.5 hrs prior to testing measured for 5 mins by forced swimming test relative to vehicle-treated control; type: functional; set-up: scale not given: the % may be the effect or the level left

| SMILES | IC50 [1] [µM] | Ki [2] [µM] | Ki [3] [µM] | also measured |
| --- | --- | --- | --- | --- |
| CC1(C)Nc2c(cc(-c3cccc4nncn34)c3c2CCC3)C(C)(C)C1=O | 0.091 |  |  |  |
| CC1(C)Nc2c(cc(-c3cccn4cnnc34)c3c2CCC3)C(C)(C)C1=O |  | > 0.384 |  |  |
| CC1(C)Nc2c(cc(-c3cccc4nccn34)c3c2CCC3)C(C)(C)C1=O | 0.021 |  |  |  |
| CC1(C)Nc2c(cc(-c3cncc4nccn34)c3c2CCC3)C(C)(C)C1=O | 0.093 | 0.046 | > 1.25 | Ki [4]: > 3.33 µM |
| CC#C[C@]1(O)CC[C@H]2[C@@H]3CCC4=CC(=O)CCC4=C3[C@@H](c3ccc(N(C)C)cc3)C[C@@]21C [MIFEPRISTONE] |  |  |  | Time [5]: 187 s; Time [6]: 169.3 s; Activity [7]: 88.5%; Activity [8]: 80.1% |
| CC1(C)Nc2c(cc(-c3ccnc4ncccc34)c3c2CCC3)C(C)(C)C1=O | 0.053 |  |  |  |
| CC1(C)Nc2c(cc(-c3ccnc4ccccc34)c3c2CCC3)C(C)(C)C1=O |  | 0.151 |  |  |

Further lines, with some results ahead:

| IC50 [1] [µM] | Ki [2] [µM] | Ki [3] [µM] | SMILES | also measured |
| --- | --- | --- | --- | --- |
|  | > 0.384 |  | Cc1cc(-c2cc3c(c4c2CCC4)NC(C)(C)C(=O)C3(C)C)n(C)n1 |  |
| 0.037 | 0.016 | 0.022 | Cc1noc(C)c1-c1ccc2c(c1)C(C)(C)C(=O)C(C)(C)N2 | Ki [4]: 0.337 µM |
| 0.077 |  | 2.27 | Cc1noc(C)c1-c1cc2c(c3c1OCO3)NC(C)(C)C(=O)C2(C)C | Ki [4]: > 3 µM |
| 0.167 | 0.106 |  | Cc1noc(C)c1-c1cc2c(c3c1CCCC3)NC(C)(C)C(=O)C2(C)C |  |
| 0.084 | 0.035 | 1.19 | CC1(C)Nc2c(cc(-c3cccn4nccc34)c3c2CCC3)C(C)(C)C1=O |  |
| 0.15 | 0.069 |  | Cc1ncn(C)c1-c1cc2c(c3c1CCC3)NC(C)(C)C(=O)C2(C)C |  |
| < 0.03 | 0.151 | 0.403 | Cc1noc(C)c1-c1cc2c(cc1Cl)NC(C)(C)C(=O)C2(C)C | Ki [4]: > 3 µM |
| 0.128 | 0.028 | > 1.25 | Cc1cnn(C)c1-c1cc2c(c3c1CCC3)NC(C)(C)C(=O)C2(C)C |  |
|  | 0.146 |  | COc1cc2c(cc1-c1c(C)noc1C)C(C)(C)C(=O)C(C)(C)N2 |  |
|  | > 0.384 |  | Cc1cn(C)c(-c2cc3c(c4c2CCC4)NC(C)(C)C(=O)C3(C)C)n1 |  |
